Data: patent US20050271676A1, “Inducing cellular immune responses to human immunodeficiency virus-1 using peptide and nucleic acid compositions” (Epimmune Inc., priority 1993, published 2005)
No end group written: not given here.

What was measured:
[1] = target: HLA-A*0202 (Homo sapiens, UniProt P04439, D140Y/D185E/D98H/E176V/E277Q/G131W/G231S/I119L/I121R/I166T/I218V/L180W/L300P/L318F/N151K/N90K/P208A/P217A/Q67R/Q86G/Q94H/R138H/R169H/T345S); assay: purified HLA class I binding assay, A*0202
[2] = target: HLA-A*6802 (Homo sapiens, UniProt P04439, A269V/D140Y/D185E/E176V/E277Q/E87N/F33Y/G231S/I121R/I166T/I218V/L180W/L300P/L318F/N151K/P208A/P217A/Q86R/R138H/R169H/S129P/T345S/V36M); assay: purified HLA class I binding assay, A*6802
[3] = target: HLA-A*0206 (Homo sapiens, UniProt P04439, D140Y/D185E/D98H/E176V/E277Q/F33Y/G131W/G231S/I119V/I121R/I166T/I218V/L300P/L318F/N151K/N90K/P208A/P217A/Q86G/Q94H/R138H/R169H/T345S); assay: purified HLA class I binding assay, A*0206
[4] = target: HLA-A*0203 (Homo sapiens, UniProt P04439, A173T/D140Y/D185E/D98H/E277Q/G131W/G231S/I119V/I121R/I166T/I218V/L180W/L300P/L318F/N151K/N90K/P208A/P217A/Q86G/Q94H/R138H/R169H/T345S); assay: purified HLA class I binding assay, A*0203
[5] = target: T1, HLA-DRB1*0301 (DR3) (Homo sapiens, UniProt P01903+P01911, A100K/A102G/A103R/A169T/F55Y/I96L/K41T/L162R/M171V/P40S/Q125H/Q178H/Q39Y/R42S/S66N/T106N/T262R/W38E/Y61H); assay: purified HLA class II binding assay, DRB1*0301 (DR3), pH 4.5; conditions: for DR3 binding information: Table XXd, HIV DR 3b motif peptides
T1 construct: endogenous in cells; host or cells: MAT
T1 sequence (P01903 26-254 partner, other chains not shown): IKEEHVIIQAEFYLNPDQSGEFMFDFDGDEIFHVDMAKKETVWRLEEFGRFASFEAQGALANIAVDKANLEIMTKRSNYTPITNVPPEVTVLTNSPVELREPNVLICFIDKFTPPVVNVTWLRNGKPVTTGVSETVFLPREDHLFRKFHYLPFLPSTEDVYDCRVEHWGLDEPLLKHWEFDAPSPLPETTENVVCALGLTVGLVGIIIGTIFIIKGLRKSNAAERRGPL

[6] = target: HLA-A*0201 (Homo sapiens, UniProt P04439, D140Y/D185E/D98H/E176V/E277Q/G131W/G231S/I119V/I121R/I166T/I218V/L300P/L318F/N151K/N90K/P208A/P217A/Q86G/Q94H/R138H/R169H/T345S); assay: purified HLA class I binding assay, A*0201

Compound | IC50 [1] [nM] | IC50 [2] [nM] | IC50 [3] [nM] | IC50 [4] [nM] | other results
CC(C)C[C@H](NC(=O)[C@H](CCCCN)NC(=O)[C@H](Cc1ccccc1)NC(=O)[C@H](CS)NC(=O)[C@H](Cc1c[nH]c2ccccc12)NC(=O)CNC(=O)[C@H](Cc1ccccc1)NC(=O)[C@@H](NC(=O)[C@H](CC(C)C)NC(=O)[C@@H]1CCCN1)[C@@H](C)O)C(=O)O [25.0142] | 741 | 47.6 | 3700 |  | 
CSCC[C@H](NC(=O)[C@H](C)NC(=O)[C@@H](N)CCCNC(=N)N)C(=O)N[C@@H](C)C(=O)N[C@@H](CO)C(=O)N[C@@H](CC(=O)O)C(=O)N[C@@H](Cc1ccccc1)C(=O)N[C@@H](CC(N)=O)C(=O)N[C@@H](CC(C)C)C(=O)O [1260.10] |  |  |  | 25000 | 
CC[C@H](C)[C@H](NC(=O)[C@@H](NC(=O)CNC(=O)[C@H](CC(C)C)NC(=O)[C@H](C)NC(=O)[C@H](Cc1ccc(O)cc1)NC(=O)[C@H](CCC(N)=O)NC(=O)[C@H](CO)NC(=O)[C@H](CC(=O)O)NC(=O)[C@@H](NC(=O)[C@@H](NC(=O)[C@@H](NC(=O)[C@H](CC(N)=O)NC(=O)[C@@H](NC(=O)[C@@H](N)CCC(=O)O)C(C)C)[C@@H](C)CC)C(C)C)[C@@H](C)O)[C@@H](C)CC)C(=O)O [Peptide 35.0127] |  |  |  |  | IC50 [5]: 732 nM
CSCC[C@H](NC(=O)[C@H](C)NC(=O)[C@H](CCC(=O)O)NC(=O)[C@H](C)NC(=O)[C@H](CC(C)C)NC(=O)[C@@H](N)C(C)C)C(=O)N[C@@H](CO)C(=O)N[C@@H](CCC(N)=O)C(=O)N[C@H](C(=O)O)C(C)C [Peptide 1069.32] | 82.7 |  |  | 15.2 | 
CC[C@H](C)[C@H](NC(=O)[C@H](CC(=O)O)NC(=O)[C@@H](NC(=O)[C@H](C)NC(=O)[C@H](CC(N)=O)NC(=O)[C@H](CC(C)C)NC(=O)[C@H](CC(C)C)NC(=O)[C@@H](N)CO)[C@@H](C)O)C(=O)N[C@@H](C)C(=O)N[C@H](C(=O)O)C(C)C [Peptide 1211.09] | 1300 | 5480 | 28.5 |  | 
CC[C@H](C)[C@H](NC(=O)[C@@H]1CCCN1C(=O)[C@@H]1CCCN1C(=O)[C@H](CC(N)=O)NC(=O)[C@H](CC(N)=O)NC(=O)[C@@H](NC(=O)[C@@H](N)CCSC)[C@@H](C)O)C(=O)N1CCC[C@H]1C(=O)N[C@H](C(=O)O)C(C)C [Peptide 1261.03] | 7170 | 12.1 |  |  | 
CC(C)C[C@H](NC(=O)[C@H](CCCCN)NC(=O)[C@H](Cc1ccccc1)NC(=O)[C@H](CS)NC(=O)[C@H](Cc1c[nH]c2ccccc12)NC(=O)CNC(=O)[C@H](Cc1ccccc1)NC(=O)[C@@H](NC(=O)[C@@H](N)CC(C)C)[C@@H](C)O)C(=O)O [Peptide 1261.04] |  | 5.6 | 206 | 4550 | 
CC[C@H](C)[C@H](NC(=O)CNC(=O)[C@H](C)NC(=O)[C@H](Cc1c[nH]c2ccccc12)NC(=O)[C@H](Cc1c[nH]c2ccccc12)NC(=O)[C@H](CS)NC(=O)[C@H](C)NC(=O)[C@H](C)NC(=O)[C@@H](N)CCCCN)C(=O)O [Peptide 1261.07] |  |  | 161 | 83.3 | 
CC[C@H](C)[C@H](NC(=O)[C@H](CC(N)=O)NC(=O)[C@@H](NC(=O)[C@@H]1CCCN1C(=O)[C@@H](NC(=O)[C@@H]1CCCN1C(=O)CNC(=O)[C@@H](NC(=O)[C@@H](N)CC(C)C)C(C)C)[C@@H](C)O)C(C)C)C(=O)O [Peptide 1261.09] |  | 67.8 | 2850 | 19.2 | 
CC[C@H](C)[C@H](NC(=O)[C@H](C)N)C(=O)N[C@H](C(=O)N[C@@H](CCCNC(=N)N)C(=O)N[C@H](C(=O)N[C@@H](CC(C)C)C(=O)N[C@@H](CCC(N)=O)C(=O)N[C@@H](CCC(N)=O)C(=O)N[C@@H](CC(C)C)C(=O)O)[C@@H](C)CC)[C@@H](C)CC [Peptide 1261.11] | 22.6 | 548 | 38.5 |  | 
CC[C@H](C)[C@H](NC(=O)[C@H](Cc1ccccc1)NC(=O)[C@H](CC(C)C)NC(=O)[C@H](CC(C)C)NC(=O)[C@H](CCC(N)=O)NC(=O)[C@H](CCC(N)=O)NC(=O)[C@H](CC(C)C)NC(=O)[C@@H](NC(=O)[C@@H](N)CCCNC(=N)N)[C@@H](C)CC)C(=O)O [Peptide 1261.12] |  | 1820 | 37 |  | IC50 [6]: 19.2 nM
CC(C)C[C@H](NC(=O)[C@H](CCCCN)NC(=O)[C@H](Cc1ccccc1)NC(=O)[C@H](CS)NC(=O)[C@H](Cc1c[nH]c2ccccc12)NC(=O)CNC(=O)[C@H](Cc1ccccc1)NC(=O)[C@@H](NC(=O)[C@@H](N)CC(C)C)[C@@H](C)O)C(=O)N[C@H](C(=O)O)C(C)C [Peptide 1261.14] | 48.9 | 6.2 |  |  | 
CSCC[C@H](N)C(=O)N[C@@H](C)C(=O)N[C@@H](CO)C(=O)N[C@@H](CC(=O)O)C(=O)N[C@@H](Cc1ccccc1)C(=O)N[C@@H](CC(N)=O)C(=O)N[C@@H](CC(C)C)C(=O)N1CCC[C@H]1C(=O)N1CCC[C@H]1C(=O)N[C@H](C(=O)O)C(C)C [Peptide 1261.15] | 22.6 | 18.2 | 33.6 | 55.6 | 
CC[C@H](C)[C@H](NC(=O)[C@H](Cc1ccccc1)NC(=O)CNC(=O)CNC(=O)[C@@H](NC(=O)CNC(=O)CNC(=O)[C@@H](NC(=O)[C@H](CCSC)NC(=O)[C@@H](N)CCCCN)[C@@H](C)CC)[C@@H](C)CC)C(=O)O [Peptide 1261.17] | 54.4 |  | 771 | 4.8 | 
CTEMEKBGKISKIGP |  |  |  |  | DR3 binding information [5]: 0.0110
DGAANRETKLCKAGY |  |  |  |  | DR3 binding information [5]: −0.0017
FLGAAGSTM [1211.05] | 3580 | 66700 | 4110 | 1.5 | IC50 [6]: 73.5 nM
FLQSRPEPT [25.0037] |  |  |  | 32.3 | 
